According to PubChem BioAssay AID1259407 (Chemical Carcinogenesis Research Information System (CCRIS), 2018):
Activity calls are given as the source filed them. The rule behind the calls is not given here.

Tested on: CCRIS mutagenicity, Ames/micronucleus/aberration tests
Assay: CCRIS mutagenicity studies

`CN(C)CCN(Cc1cccs1)c1ccccn1` was tested, and the mutagenic call (Test System: AMES SALMONELLA TYPHIMURIUM, Strain/Indicator: TA97, Metabolic Activation: RAT, LIVER, S-9, AROCLOR 1254, Method: STANDARD PLATE) was “inactive; negative”, the mutagenic call (Test System: AMES SALMONELLA TYPHIMURIUM, Strain/Indicator: TA98, Metabolic Activation: HAMSTER LIVER S-9, AROCLOR 1254 (10%), Method: PREINCUBATION) was “inactive; negative” and the mutagenic call (Test System: AMES SALMONELLA TYPHIMURIUM, Strain/Indicator: TA98, Metabolic Activation: NONE, Method: PREINCUBATION) was “inactive; negative”. For the same compound, the mutagenic call (Test System: AMES SALMONELLA TYPHIMURIUM, Strain/Indicator: TA98, Metabolic Activation: NONE, Method: STANDARD PLATE) was “inactive; negative”, the mutagenic call (Test System: AMES SALMONELLA TYPHIMURIUM, Strain/Indicator: TA98, Metabolic Activation: RAT LIVER S-9, AROCLOR 1254 (10%), Method: PREINCUBATION) was “inactive; negative” and the mutagenic call (Test System: AMES SALMONELLA TYPHIMURIUM, Strain/Indicator: TA98, Metabolic Activation: RAT, LIVER, S-9, AROCLOR 1254, Method: PREINCUBATION) was “inactive; negative”. The mutagenic call (Test System: AMES SALMONELLA TYPHIMURIUM, Strain/Indicator: TA98, Metabolic Activation: RAT, LIVER, S-9, AROCLOR 1254, Method: STANDARD PLATE) was “inactive; negative”, the mutagenic call (Test System: AMES SALMONELLA TYPHIMURIUM, Strain/Indicator: TA98, Metabolic Activation: RAT, LIVER, S-9, Method: STANDARD PLATE) was “inactive; negative” and the mutagenic call (Test System: AMES SALMONELLA TYPHIMURIUM, Strain/Indicator: TA98, Method: STANDARD PLATE) was “inactive; negative”. The mutagenic call (Test System: AMES SALMONELLA TYPHIMURIUM, Strain/Indicator: TA100, Metabolic Activation: HAMSTER LIVER S-9, AROCLOR 1254 (10%), Method: PREINCUBATION) was “inactive; negative”, the mutagenic call (Test System: AMES SALMONELLA TYPHIMURIUM, Strain/Indicator: TA100, Metabolic Activation: NONE, Method: PREINCUBATION) was “inactive; negative” and the mutagenic call (Test System: AMES SALMONELLA TYPHIMURIUM, Strain/Indicator: TA100, Metabolic Activation: NONE, Method: STANDARD PLATE) was “inactive; negative”. For the same compound, the mutagenic call (Test System: AMES SALMONELLA TYPHIMURIUM, Strain/Indicator: TA100, Metabolic Activation: RAT LIVER S-9, AROCLOR 1254 (10%), Method: PREINCUBATION) was “inactive; negative”, the mutagenic call (Test System: AMES SALMONELLA TYPHIMURIUM, Strain/Indicator: TA100, Metabolic Activation: RAT, LIVER, S-9, AROCLOR 1254, Method: STANDARD PLATE) was “inactive; negative” and the mutagenic call (Test System: AMES SALMONELLA TYPHIMURIUM, Strain/Indicator: TA100, Metabolic Activation: RAT, LIVER, S-9, Method: STANDARD PLATE) was “inactive; negative”. For the same compound, the mutagenic call (Test System: AMES SALMONELLA TYPHIMURIUM, Strain/Indicator: TA100, Method: STANDARD PLATE) was “inactive; negative”, the mutagenic call (Test System: AMES SALMONELLA TYPHIMURIUM, Strain/Indicator: TA104, Metabolic Activation: NONE, Method: STANDARD PLATE) was “inactive; negative” and the mutagenic call (Test System: AMES SALMONELLA TYPHIMURIUM, Strain/Indicator: TA104, Metabolic Activation: RAT, LIVER, S-9, AROCLOR 1254, Method: STANDARD PLATE) was “inactive; negative”. For the same compound, the mutagenic call (Test System: AMES SALMONELLA TYPHIMURIUM, Strain/Indicator: TA104, Metabolic Activation: RAT, LIVER, S-9, Method: STANDARD PLATE) was “inactive; negative”, the mutagenic call (Test System: AMES SALMONELLA TYPHIMURIUM, Strain/Indicator: TA104, Method: STANDARD PLATE) was “inactive; negative” and the mutagenic call (Test System: AMES SALMONELLA TYPHIMURIUM, Strain/Indicator: TA1535, Metabolic Activation: HAMSTER LIVER S-9, AROCLOR 1254 (10%), Method: PREINCUBATION) was “inactive; negative”. The mutagenic call (Test System: AMES SALMONELLA TYPHIMURIUM, Strain/Indicator: TA1535, Metabolic Activation: NONE, Method: PREINCUBATION) was “inactive; negative”, the mutagenic call (Test System: AMES SALMONELLA TYPHIMURIUM, Strain/Indicator: TA1535, Metabolic Activation: RAT LIVER S-9, AROCLOR 1254 (10%), Method: PREINCUBATION) was “inactive; negative” and the mutagenic call (Test System: AMES SALMONELLA TYPHIMURIUM, Strain/Indicator: TA1535, Metabolic Activation: RAT, LIVER, S-9, AROCLOR 1254, Method: STANDARD PLATE) was “inactive; negative”. The mutagenic call (Test System: AMES SALMONELLA TYPHIMURIUM, Strain/Indicator: TA1535, Metabolic Activation: RAT, LIVER, S-9, Method: STANDARD PLATE) was “inactive; negative”, the mutagenic call (Test System: AMES SALMONELLA TYPHIMURIUM, Strain/Indicator: TA1535, Method: STANDARD PLATE) was “inactive; negative” and the mutagenic call (Test System: AMES SALMONELLA TYPHIMURIUM, Strain/Indicator: TA1537, Metabolic Activation: HAMSTER LIVER S-9, AROCLOR 1254 (10%), Method: PREINCUBATION) was “inactive; negative”. The mutagenic call (Test System: AMES SALMONELLA TYPHIMURIUM, Strain/Indicator: TA1537, Metabolic Activation: NONE, Method: PREINCUBATION) was “inactive; negative”, the mutagenic call (Test System: AMES SALMONELLA TYPHIMURIUM, Strain/Indicator: TA1537, Metabolic Activation: NONE, Method: STANDARD PLATE) was “inactive; negative” and the mutagenic call (Test System: AMES SALMONELLA TYPHIMURIUM, Strain/Indicator: TA1537, Metabolic Activation: RAT LIVER S-9, AROCLOR 1254 (10%), Method: PREINCUBATION) was “inactive; negative”. For the same compound, the mutagenic call (Test System: AMES SALMONELLA TYPHIMURIUM, Strain/Indicator: TA1537, Metabolic Activation: RAT, LIVER, S-9, AROCLOR 1254, Method: STANDARD PLATE) was “inactive; negative”, the mutagenic call (Test System: AMES SALMONELLA TYPHIMURIUM, Strain/Indicator: TA1537, Metabolic Activation: RAT, LIVER, S-9, Method: STANDARD PLATE) was “inactive; negative” and the mutagenic call (Test System: AMES SALMONELLA TYPHIMURIUM, Strain/Indicator: TA1537, Method: STANDARD PLATE) was “inactive; negative”. For the same compound, the mutagenic call (Test System: AMES SALMONELLA TYPHIMURIUM, Strain/Indicator: TA1538, Metabolic Activation: RAT, LIVER, S-9, AROCLOR 1254, Method: STANDARD PLATE) was “inactive; negative”, the mutagenic call (Test System: AMES SALMONELLA TYPHIMURIUM, Strain/Indicator: TA2638, Metabolic Activation: NONE, Method: STANDARD PLATE) was “inactive; negative” and the mutagenic call (Test System: AMES SALMONELLA TYPHIMURIUM, Strain/Indicator: TA2638, Metabolic Activation: RAT, LIVER, S-9, AROCLOR 1254, Method: STANDARD PLATE) was “inactive; negative”. For the same compound, the mutagenic call (Test System: AMES SALMONELLA TYPHIMURIUM, Strain/Indicator: TA2638, Metabolic Activation: RAT, LIVER, S-9, Method: STANDARD PLATE) was “inactive; negative”, the mutagenic call (Test System: AMES SALMONELLA TYPHIMURIUM, Strain/Indicator: TA2638, Method: STANDARD PLATE) was “inactive; negative” and the mutagenic call (Test System: CHINESE HAMSTER OVARY, Strain/Indicator: CHO-K1-BH4 (HGPRT), Metabolic Activation: NONE, Method: SUSPENSION/PLATE) was “inactive; negative”. For the same compound, the mutagenic call (Test System: CHINESE HAMSTER OVARY, Strain/Indicator: CHO-K1-BH4 (HGPRT), Metabolic Activation: RAT, LIVER, S-9, AROCLOR, Method: SUSPENSION/PLATE) was “inactive; negative”, the mutagenic call (Test System: E. COLI, Strain/Indicator: WP2 UVRA, Metabolic Activation: NONE, Method: STANDARD PLATE) was “inactive; negative” and the mutagenic call (Test System: E. COLI, Strain/Indicator: WP2 UVRA, Metabolic Activation: RAT, LIVER, S-9, AROCLOR 1254, Method: STANDARD PLATE) was “inactive; negative”. For the same compound, the mutagenic call (Test System: E. COLI, Strain/Indicator: WP2 UVRA, Metabolic Activation: RAT, LIVER, S-9, Method: STANDARD PLATE) was “inactive; negative”, the mutagenic call (Test System: E. COLI, Strain/Indicator: WP2 UVRA, Method: STANDARD PLATE) was “inactive; negative” and the mutagenic call (Test System: MOUSE LYMPHOMA, Strain/Indicator: L5178Y (TK+/+)/TRIFLUOROTHYMIDINE, Metabolic Activation: RAT LIVER S-9, AROCLOR 1254, Method: SUSPENSION/PLATE) was “inactive; negative”. The mutagenic call (Test System: MOUSE LYMPHOMA, Strain/Indicator: L5178Y (TK+/TK-), Metabolic Activation: NONE, Method: SUSPENSION/PLATE) was “inactive; negative”, the mutagenic call (Test System: MOUSE LYMPHOMA, Strain/Indicator: L5178Y (TK+/TK-), Metabolic Activation: RAT, LIVER, S-9, AROCLOR 1242 AND 1254 (2:1), Method: SUSPENSION/PLATE) was “active; positive” and the mutagenic call (Test System: MOUSE LYMPHOMA, Strain/Indicator: L5178Y (TK+/TK-), Metabolic Activation: RAT, LIVER, S-9, AROCLOR 1242 AND 1254 (2:1 MIXTURE), Method: SUSPENSION/PLATE) was “active; positive”. The mutagenic call (Test System: MOUSE LYMPHOMA, Strain/Indicator: L5178Y (TK+/TK-), Metabolic Activation: RAT, LIVER, S-9, AROCLOR 1254, Method: SUSPENSION/PLATE) was “inactive; negative” and the mutagenic call (Test System: UDS RAT HEPATOCYTES, Strain/Indicator: THY INCORP, Metabolic Activation: NONE, Method: AUTORADIOGRAPHY (SERUM-FREE MEDIA)) was “active; positive”.
